Literature values, collected in US20040191218A1, “Pharmaceutical compositions and methods for treating cancer” (priority 2001, published 2004).

Tests used:
[1] = carboplatin compared with cisplatin
[2] = tested on: neoplastic cells including ovarian cancer cells
[3] = tested on: ovarian cancer; settings: intraperitoneal IFN-γ, 108 patients with residual disease at second-look laparotomy
[4] = tested on: relapsing ovarian cancer; settings: 14 patients with relapsing ovarian cancer, IFN-γ 2 mg/m^2 daily intravenously

Q: With `[NH2][Pt]1([NH2])[O]C(=O)C2(CCC2)C(=O)[O]1` [carboplatin, diammine(1,1-cyclobutanedicarboxylato) platinum(II)] as the compound, how does the neurotoxicity and nephrotoxicity [1] read?
A: less neurotoxicity and nephrotoxicity than cisplatin

Q: Which “antiproliferative effects on neoplastic cells” value [2] does the source give for “IFN-γ: lymphokine produced by T-lymphocytes; natural or recombinant interferon gamma” here?
A: exerts antiproliferative effects

Q: And the overall response rate [3]?
A: 31%

Q: And the Positive responses [4]?
A: 29%
